Experimental data: patent US10865222B2, “Neisseria gonorrhoeae therapeutic based on CMP-nonulosonate sugars” (priority 2014, dated 2020)
“Also recorded” adds a separate entry of the source.

How the values were obtained:
[1] = target: T1, gonococcal LOS sialyltransferase (Lst) (Neisseria gonorrhoeae, UniProt P72074); type: cell-based, N. gonorrhoeae; conditions: CMP salt 30 μM (20 μg/ml), 2 h at 37° C.
T1 construct: served as substrates for gonococcal Lst in the context of live bacteria; endogenous in cells; host or cells: N. gonorrhoeae F62 ΔlgtD (live bacteria)
Method: FIG. 1. Substrate specificity of gonococcal LOS sialyltransferase (Lst) N. gonorrhoeae strain F62 ΔIgtD was grown in standard gonococcal liquid media alone (‘No sialic acid’) or in media supplemented with CMP salts of the indicated sialic acid or nonulosonic acid, each at a concentration of 20 μg/ml (˜30 μM), for 2 h at 37° C. Bacteria were washed, pellets treated with protease K, lysed in 4×LDS buffer and lysates were separated on 12% Bis-Tris gels using MES running buffer. LOS was transferred to a PVDF membrane and probed with mAb 3F11 that recognizes the lacto-N-neotetraose only in the non-sialylated state; the addition of a sialic acid or nonulosonate residue abrogates mAb 3F11 binding (upper panel). LOS was also visualized by silver staining (middle panel). Sialylation or nonulosonate (NulO) modification was also quantified using whole cell ELISA with mAb 3F11 (lower graph).
To define the substrate specificity of gonococcal LOS sialyltransferase, N. gonorrhoeae F62 ΔIgtD was grown in media alone, or media that contained the CMP-activated derivatives of 7 nonulosonates (listed in Table 1), each at a concentration of 30 μM (20 μg/ml). Following incubation for 2 h at 37° C., bacteria were washed, lysed with protease K/LDS sample buffer and separated on 12% Bis-tris gels. Blots were probed with mAb 3F11, which binds to the terminal lactosamine residue of lacto-N-neotetraose (LNT); any extension beyond the terminal Gal (in this instance with a nonose) would abrogate 3F11 binding. […] Whole cell ELISA with mAb 3F11 confirmed results of western blotting (FIG. 1, lower graph).
Bacteria (F62 ΔIgtD) grown overnight on chocolate agar plates were suspended in gonococcal liquid media supplemented with IsoVitaleX (11) that contained specified concentrations of the CMP-nonulosonate. Bacteria were then incubated at 37° C. for the period specified in each experiment.
Gonococcal lysates treated with protease K (100 μg/ml) and NuPAGE® LDS Sample Buffer (4×) (Invitrogen) were separated on NuPAGE® 12% Bis-Tris (Invitrogen) gels using Novex® MES running buffer (Invitrogen) followed by sliver staining with the Bio-Rad Silver Stain Kit, or were transferred to an Immobilon PVDF membrane (Millipore). Membranes were blocked with PBS/1% milk and probed with tissue culture supernatants that contained mAb 3F11. mAb 3F11-reactive LOS bands were disclosed with anti-mouse IgM conjugated to alkaline phosphatase followed by the addition of BCIP®/NBT-Purple Liquid Substrate (Sigma).

[2] = target: T2, Lst sialyltransferase from N. gonorrhoeae F62 (Neisseria gonorrhoeae, UniProt P72074); assay: Lst sialyltransferase acceptor specificity with CMP-Neu5Ac and CMP-Leg5Ac7Ac donors (TLC); type: biochemical; conditions: for removal of the nonulosonate from modified LacNAc acceptors by Lst over time: 2 h versus 20 h
T2 construct: made in house; host or cells: Escherichia coli
Method: (§1) FIG. 11. N. gonorrhoeae Lst sialyltransferase efficiently legylates a LacNAc acceptor. The acceptor specificity of N. gonorrhoeae Lst sialyltransferase was assessed using CMP-Neu5Ac and CMP-Leg5Ac7Ac donors. The various acceptors tested were LacNAc or Galβ-1,4-GlcNAc-β-FCHASE, Lacto-N-biose or Galβ-1,3-GlcNAc-β-FCHASE, TAg or Galβ-1,3-GalNAc-α-FCHASE, and Pk or Galα-1,4-Galβ-1,4-Glc-β-FCHASE. Lst enzyme preparations (2.5 μg per assay) were incubated with 2.5 pmoles of each acceptor with either 3 mM CMP-Neu5Ac or 3 mM CMP-Leg5Ac7Ac for either 2 or 20 h as indicated. Reactions were then examined by TLC. Arrows indicate the general vicinity of FCHASE acceptors (top spots), whereas arrowheads indicate the general vicinity of modified FCHASE acceptors (bottom spots—enzyme product).
as §1, with “The” for “FIG. 11. N. gonorrhoeae Lst sialyltransferase efficiently legylates a LacNAc acceptor. The”, “product) (FIG. 11).” for “product).”
Lst sialyltransferase from N. gonorrhoeae F62 was recombinantly produced in Escherichia coli. Total membranes were isolated by ultracentrifugation at 100,000×g, resuspended in 0.2% Triton X-100, 50 mM Tris pH 7.5, 100 mM NaCl and incubated for 2 h at 4° C. […] N. gonorrhoeae Lst enzymatic assays were performed using 2.5 pmoles of 4 different FCHASE acceptors; LacNAc or Galβ-1,4-GlcNAc-β-FCHASE, Lacto-N-biose or Galβ-1,3-GlcNAc-β-FCHASE, TAg or Galβ-1,3-GalNAc-α-FCHASE, Pk or Galα-1,4-Galβ-1,4-Glc-β-FCHASE. CMP-Neu5Ac donor assays contained 50 mM Tris pH 7.5, whereas CMP-Leg5Ac7Ac donor assays contained 50 mM MES pH 6. All reactions contained 10 mM MnCl2, 3 mM CMP-sugar donor and 2.5 μg Lst enzyme. Reactions were incubated at 30° C. for either 2 h or 20 h as indicated. Upon completion of the reactions, stop solution was added (final concentration of 0.5% SDS, 5 mM EDTA, 25% acetonitrile) and an aliquot was run on TLC using EtOAc:MeOH:H2O:HOAc 4:2:1:0.1 as the mobile phase.

T1 sequence (P72074 whole entry): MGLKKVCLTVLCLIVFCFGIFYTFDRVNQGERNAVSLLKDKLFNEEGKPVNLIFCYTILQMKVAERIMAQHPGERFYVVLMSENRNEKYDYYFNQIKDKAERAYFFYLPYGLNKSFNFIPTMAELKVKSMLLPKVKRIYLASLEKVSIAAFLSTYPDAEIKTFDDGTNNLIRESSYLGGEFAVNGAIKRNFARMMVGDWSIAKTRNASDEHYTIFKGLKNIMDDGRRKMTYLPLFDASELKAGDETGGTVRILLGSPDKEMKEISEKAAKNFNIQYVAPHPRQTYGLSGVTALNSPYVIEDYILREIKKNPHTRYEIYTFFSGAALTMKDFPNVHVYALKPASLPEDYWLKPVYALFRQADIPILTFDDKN
T2 sequence (P72074 whole entry): as above

Compound | mAb 3F11 binding / incorporation of nonulosonate onto LNT LOS (use as Lst substrate) [1] | product conversion of LacNAc acceptor ([2]; 3 mM CMP-sugar donor, 2.5 μg Lst) | removal of the nonulosonate from modified LacNAc acceptors by Lst over time [2] | utilization of Lacto-N-biose, TAg and Pk acceptors ([2]; 3 mM CMP-sugar donor, 2 or 20 h)
5,7-diacetamido-3,5,7,9-tetradeoxy-D-glycero-D-galacto-nonulosonic acid [CMP-Leg5Ac7Ac] | decreased binding of mAb 3F11; also recorded: least incorporated | ~100% | this was not observed | –
CC(=O)N[C@H]1[C@H]([C@H](O)[C@H](O)COC(C)=O)OC(OP(=O)(O)OC[C@H]2O[C@@H](n3ccc(N)nc3=O)[C@H](O)[C@@H]2O)(C(=O)O)C[C@@H]1O (stereo partly drawn) [CMP-Neu5Ac9Ac, CMP-5-acetamido-9-O-acetyl-3,5-dideoxy-D-glycero-D-galacto-nonulosonic acid] | decreased binding of mAb 3F11 | – | – | –
CC(=O)N[C@H]1[C@H]([C@H](O)[C@H](O)CN=[N+]=[N-])OC(OP(=O)(O)OC[C@H]2O[C@@H](n3ccc(N)nc3=O)[C@H](O)[C@@H]2O)(C(=O)O)C[C@@H]1O (stereo partly drawn) [CMP-Neu5Ac9Az, CMP-5-acetamido-9-azido-3,5,9-trideoxy-D-glycero-D-galacto-nonulosonic acid] | decreased binding of mAb 3F11 | – | – | –
CC(=O)NC1C(O)CC(OP(=O)(O)OCC2OC(n3ccc(N)nc3=O)C(O)C2O)(C(=O)O)OC1C(O)C(O)CO [CMP-Neu5Ac, CMP-5-acetamido-3,5-dideoxy-D-glycero-D-galacto-nonulosonic acid, reference compound] | decreased binding of mAb 3F11 | – | can remove Neu5Ac from modified LacNAc acceptors over time | all but TAg could be efficiently utilized
COC(CO)C(O)C1OC(OP(=O)(O)OCC2OC(n3ccc(N)nc3=O)C(O)C2O)(C(=O)O)CC(O)C1NC(=O)CO [CMP-Neu5Gc8Me, CMP-5-hydroxyacetamido-8-O-methyl-3,5-dideoxy-D-glycero-D-galacto-nonulosonic acid] | decreased binding of mAb 3F11 | – | – | –
